Results reported in PubChem BioAssay (NCI).
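Exposure lasted 48 hours, with cells grown in 96-well plates and compounds tested at five concentrations. TGI marks complete inhibition of growth.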

Tests used:
Assay in all cases: NCI tumour cell line growth inhibition, 48 h
SR leukemia = system: SR leukemia
CAKI-1 renal = system: CAKI-1 renal
SN12C renal = system: SN12C renal
HOP-62 NSCLC = system: HOP-62 NSCLC
LXFL 529 NSCLC = system: LXFL 529 NSCLC
SF-539 CNS = system: SF-539 CNS
NCI-H23 lung = system: NCI-H23 lung
MOLT-4 leukemia = system: MOLT-4 leukemia
UACC-62 melanoma = system: UACC-62 melanoma
HCT-15 colon = system: HCT-15 colon
A549 NSCLC = system: A549 NSCLC
SK-MEL-5 melanoma = system: SK-MEL-5 melanoma
ACHN renal = system: ACHN renal
HOP-92 NSCLC = system: HOP-92 NSCLC
HT29 colon = system: HT29 colon
SNB-75 CNS = system: SNB-75 CNS
NCI-H522 lung = system: NCI-H522 lung
RPMI-8226 leukemia = system: RPMI-8226 leukemia
PC-3 prostate = system: PC-3 prostate
MDA-MB-231 breast = system: MDA-MB-231 breast

SMILES	TGI (SR leukemia) [µM]	TGI (CAKI-1 renal) [µM]	TGI (SN12C renal) [µM]	TGI (HOP-62 NSCLC) [µM]	TGI (LXFL 529 NSCLC) [µM]	TGI (SF-539 CNS) [µM]	TGI (NCI-H23 lung) [µM]	TGI (MOLT-4 leukemia) [µM]	TGI (UACC-62 melanoma) [µM]	TGI (HCT-15 colon) [µM]	TGI (A549 NSCLC) [µM]	TGI (SK-MEL-5 melanoma) [µM]	TGI (ACHN renal) [µM]	TGI (HOP-92 NSCLC) [µM]	TGI (HT29 colon) [µM]	TGI (SNB-75 CNS) [µM]	TGI (NCI-H522 lung) [µM]	TGI (RPMI-8226 leukemia) [µM]	TGI (PC-3 prostate) [µM]	TGI (MDA-MB-231 breast) [µM]
CCOc1ccc(/C(Cl)=C(\C=O)c2ccc(OC)c(OC)c2)cc1OCC	50.8	> 100	> 100	> 100	> 100	> 100	> 100	> 100	> 100	> 100	> 100	64.9	> 100	> 100	> 100	> 100	> 100	> 100		
CC(C)CC(NC(=O)OC(C)(C)C)C(=O)Nc1ccc(Nc2nc(F)nc(-c3c4ccccc4c4n3CCS4)n2)cc1 (configuration not stated)	34.7	33.1	43.5	37.2	35.2	37.7	33.1	39	31.9	30.3	> 100	41.2	39.2	34.4	34.8	38.2	29.2	58.6		
CN(C)C(=S)/N=c1\ssc(=S)n1Cc1ccccc1	37.3	> 56.2	> 63.1	20.7	> 100	1.49	24.8	29	16.8	> 49.6	56	18.3	> 56.2	7.63	11.7	3.29	0.617	31.6	35.5	42.6
Cc1ccc([N+](=O)[O-])cc1NC(=O)/C(=N/NC(=S)NN)C1SC(=S)NC1=O (configuration not stated)	> 100	> 100	> 100	> 100	> 100	> 100	> 100	> 100	> 100	> 100	> 100	> 100	> 100	> 100	> 100	> 100	> 100	> 100		
O=C1c2ccccc2OP(=O)(OCC(F)(F)F)OC1(C(F)(F)F)C(F)(F)F (configuration not stated)	> 100	> 100	> 100	> 100	> 100	> 100	> 100	> 100	> 100	> 100	> 100	> 100	> 100	> 100	> 100	> 100	> 100	> 100		
COc1ccc(N=Cc2ccc(N(CCC#N)S(=O)(=O)c3ccccc3)cc2)cc1	> 100	> 100	> 100	> 100	> 100	> 100	> 100	> 100	> 100	> 100	> 100	> 100	> 100	> 100	> 100	> 100	> 100	> 100		
CN(C)C(=S)/N=c1\ssc(=S)n1Cc1cccnc1	> 100	> 100	> 100	> 100	> 100	> 100	> 69.6	98.5	> 67.7	> 75	> 100	37.8	> 100	> 100	> 49.5	20.6	9.61	> 100	> 100	> 100
Nc1ccc2c(SCc3ccc([N+](=O)[O-])cc3)c3ccccc3nc2c1	5.05	28.7	34	46.5	18.5	30.8	32.8	6.73	31.3	31.1	48.9	28.4	14.5	36.4	32.6	34.7	15.1	14.2	29.7	> 55.8
N#C/C(c1nc2ccccc2[nH]1)=c1\s/c(=C/c2ccc(Cl)cc2)c(=O)n1-c1ccccc1	> 100	> 100	> 100	> 100	> 100	> 100	> 100	> 100	> 100	> 100	> 100	> 100	> 100	> 100		> 100	> 100	> 100		
